Experimental data published in PMC8170916, “Sublingual AKBA Exerts Antidepressant Effects in the Aβ-Treated Mouse Model” (Biomolecules, 2021).

Assays:
noradrenaline (NA) = assay: Noradrenaline quantification in PFC and HIPP by HPLC with electrochemical detection; type: in vivo; conditions: mice 7 days after icv Aβ 4 µM, sublingual AKBA 5 mg/kg 30 min earlier
Experimental: All behavioral experiments were conducted at 5 or 30 min after sublingual administrations of AKBA or vehicle in either SHAM or Aβ-treated mice. Based upon behavioral outcomes observed, neurochemical and biochemical quantifications were performed 30 min after AKBA or vehicle administration in either SHAM or Aβ-treated mice.
Anesthetized animals were sacrificed by cervical dislocation. Brains were immediately removed and kept on ice for dissection of PFC and HIPP, according to the atlas of Paxinos and Franklin. Tissues were frozen and stored at −80 °C until analyses were carried out. Samples (PFC and HIPP) were homogenized (1:10 w/v) at 4 °C using a PBS buffer containing a 1:100 protease and phosphatase inhibitor cocktail (HALT inhibitors, Thermo Fisher Scientific, Cleveland, OH, USA) for biochemical analyses or perchloric acid 0.1 M for neurochemical analyses. Homogenates were centrifuged at 13,000× g at 4 °C for 20 min, and supernatants were used for further determinations.
5-HT, noradrenaline (NA), and KYN levels were measured in the PFC and HIPP of mice by HPLC coupled with an electrochemical detector (Ultimate ECD, Thermo Scientific Dionex, Milan, Italy) as already reported. Separation was performed by a LC18 reverse phase column (Kinetex, 150 mm × 3.0 mm, ODS 5 μm; Phenomenex, Castel Maggiore-Bologna, Italy). The detection was accomplished by a thin layer amperometric cell (Thermo Scientific Dionex, Milan, Italy) with a 5 mm diameter glassy carbon electrode at a working potential of 400 mV (5-HT and NA) or 0.750 mV (KYN) vs. Pd. The mobile phase consisted of an aqueous buffer containing 75 mM NaH2PO4, 1.7 mM octane sulfonic acid, 0.3 mM EDTA, and acetonitrile 10%, buffered at pH 3.0. […] GLU concentrations were determined by HPLC coupled with fluorescence detection (emission length 460 nm; excitation length 340 nm), as previously published. […] Results were analyzed by Borwin software (version 1.50; Jasco, Cremella, Italy) and the amino acid concentration was expressed as µM. All data were normalized for total area weight and were expressed as concentration/mg of tissue.

[1] = Plasmatic AKBA levels after sublingual or intranasal administration; type: in vivo, mice; conditions: 5 mg/kg
Experimental: AKBA (Cayman Chemical Company) was dissolved in sunflower oil, this vehicle was chosen in order to maintain a better tasting and higher density of the final solution thus reducing reflux through the digestive tract. […] Ten µL of the solution (or vehicle alone) was sublingually administered to mice. For intranasal administration, requiring more hydrophilic solution, AKBA was dissolved in DMSO and saline (1:3, v/v), and given to mice at the same final dose of 5 mg/kg. […]
[…] The pellets were then removed, and the remaining supernatants were dried on sodium sulphate anhydrous, filtered with 0.20 µm PTFE syringe filters and used for chemical analysis. The quantification of 3-O-acetyl-11-keto-β-boswellic acid (AKBA) was performed by using GC-MS/IT equipment composed of a gas chromatograph GC-7890B (Agilent Technologies, Santa Clara, CA, USA) coupled with an ion trap mass spectrometer IT-240 (Agilent Technologies).
The gas chromatograph was equipped with a VF-5 ms (Agilent J&W GC Columns) capillary column, 30 m × 0.25 mm i.d. × 0.25 µm. […]
The MS electron multiplier voltage was set at 1450 V, and an ionization time of 65,000 µs was used, running in the electron impact (EI) mode. […] These characteristic fragments were selected as a mass target to develop the MS acquisition method operating in single ion scan mode (SIS) to improve the LOD and LOQ for AKBA quantification. […]

intact mice = assay: Preliminary experiments on antidepressant effects in intact mice; type: in vivo; conditions: unpublished observations
Experimental: AKBA (Cayman Chemical Company) was dissolved in sunflower oil, this vehicle was chosen in order to maintain a better tasting and higher density of the final solution thus reducing reflux through the digestive tract. […] Ten µL of the solution (or vehicle alone) was sublingually administered to mice. For intranasal administration, requiring more hydrophilic solution, AKBA was dissolved in DMSO and saline (1:3, v/v), and given to mice at the same final dose of 5 mg/kg. Cerebral AKBA was quantified in a separate subset of mice at 5, 15 and 30 min after its administration, either sublingually or intranasally.

**Q.** What does the source list for `CC(=O)O[C@@H]1CC[C@@]2(C)[C@@H](CC[C@]3(C)[C@@H]2C(=O)C=C2[C@@H]4[C@@H](C)[C@H](C)CC[C@]4(C)CC[C@]23C)[C@@]1(C)C(=O)O` [AKBA, 3-O-acetyl-11-keto-β-boswellic acid]?
**A.** NA levels in the HIPP (noradrenaline (NA); HIPP): further increase compared to SHAM mice; NA levels in the PFC (noradrenaline (NA); PFC): significantly increased NA levels; Plasmatic AUCs, sublingual vs intranasal [1]: higher after sublingual administration; Plasmatic AKBA levels ([1]; sublingual vs intranasal, 5, 15 and 30 min after administration): significantly higher after sublingual administration compared to intranasal; Lowest dose showing antidepressant effects on intact mice (intact mice): 5 mg/kg
